# Test results taken from patent US20230089073A1 (Carmot Therapeutics, Inc., priority 2021, published 2023).
# Molecular target: T1, human GLP-1 receptor (Homo sapiens, UniProt P43220)
# T1 construct: expressed in transfected cells
# Test: GLP-1R cAMP Assay
# Assay type: cell-based
# Conditions: cAMP accumulation in CHO cells stably overexpressing the human GLP-1 receptor; 30 min treatment; HitHunter cAMP kit; read-out: EC50
# Summary of the method: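 Luminescent enzyme-complementation detection of cAMP, read after cell lysis and overnight incubation, with dose-response curve fitting. Stimulation lasted 30 min, using 20-point triplicate dosing on CHO cells (10,000 per well) stably overexpressing human GLP-1R.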
# T1 sequence (P43220 24-463): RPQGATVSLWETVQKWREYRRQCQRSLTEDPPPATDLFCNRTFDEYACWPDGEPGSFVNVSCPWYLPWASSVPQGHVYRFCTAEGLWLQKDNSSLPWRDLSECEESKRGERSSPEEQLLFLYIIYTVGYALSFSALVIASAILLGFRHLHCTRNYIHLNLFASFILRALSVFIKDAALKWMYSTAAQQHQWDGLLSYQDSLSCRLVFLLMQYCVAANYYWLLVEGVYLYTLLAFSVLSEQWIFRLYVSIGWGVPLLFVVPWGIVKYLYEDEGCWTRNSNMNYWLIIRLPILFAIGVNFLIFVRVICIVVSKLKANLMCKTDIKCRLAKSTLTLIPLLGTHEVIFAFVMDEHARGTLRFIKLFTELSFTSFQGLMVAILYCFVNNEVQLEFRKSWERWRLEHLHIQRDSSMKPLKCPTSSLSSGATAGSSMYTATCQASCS
row,Compound,EC50
1,"C[C@H]1C[C@@H](Oc2ccnc(COc3ccc(F)cc3F)n2)CCN1Cc1nc2ncc(C(=O)O)cc2n1C[C@@H]1CCO1 [Compound 512, 2-{[(2S,4S)-4-({2-[(2,4-difluorophenoxy)methyl]pyrimidin-4-yl}oxy)-2-methylpiperidin-1-yl]methyl}-1-{[(2S)-oxetan-2-yl]methyl}-1H-imidazo[4,5-b]pyridine-6-carboxylic acid]",> 0.5 µM
2,"O=C(O)c1ccc2nc(CN3CCC(Oc4ccnc(COc5ccc(Cl)cc5F)c4)CC3)n(Cc3ccno3)c2c1 [Compound 266, 2-{[4-({2-[(4-chloro-2-fluorophenoxy)methyl]pyridin-4-yl}oxy)piperidin-1-yl]methyl}-1-[(1,2-oxazol-5-yl)methyl]-1H-1,3-benzodiazole-6-carboxylic acid]",< 0.05 µM
3,"O=C(O)c1ccc2nc(CN3CCC(Oc4cccnc4COc4ccc(Cl)cc4Cl)CC3)n(C[C@@H]3CCO3)c2c1 [Compound 286, 2-{[4-({2-[(2,4-dichlorophenoxy)methyl]pyridin-3-yl}oxy)piperidin-1-yl]methyl}-1-{[(2S)-oxetan-2-yl]methyl}-1H-1,3-benzodiazole-6-carboxylic acid]",> 0.5 µM
4,"O=C(O)c1ccc2nc(CN3CCC(Oc4ccnc(COc5ccc(Cl)cc5Cl)c4)CC3)n(C[C@H]3CCOC3)c2c1 [Compound 169, 2-{[4-({2-[(2,4-dichlorophenoxy)methyl]pyridin-4-yl}oxy)piperidin-1-yl]methyl}-1-{[(3R)-oxolan-3-yl]methyl}-1H-1,3-benzodiazole-6-carboxylic acid]",< 0.05 µM
5,"Cc1ccc(OCc2ccc(C(=O)N3CCN(Cc4nc5ccc(C(=O)O)cc5n4C[C@@H]4CCO4)CC3)o2)c(Cl)c1 [Compound 38, 2-[(4-{5-[(2-chloro-4-methylphenoxy)methyl]furan-2-carbonyl}piperazin-1-yl)methyl]-1-{[(2S)-oxetan-2-yl]methyl}-1H-1,3-benzodiazole-6-carboxylic acid]",> 0.5 µM
6,"C[C@H]1C[C@@H](Oc2ccnc(COc3ccc(C4CC4)cc3C#N)n2)CCN1Cc1nc2c(F)cc(C(=O)O)cc2n1C[C@@H]1CCO1 [Compound 509, 2-(((2S,4S)-4-((2-((2-cyano-4-cyclopropylphenoxy)methyl)pyrimidin-4-yl)oxy)-2-methylpiperidin-1-yl)methyl)-4-fluoro-1-(((S)-oxetan-2-yl)methyl)-1H-benzo[d]imidazole-6-carboxylic acid]",< 0.05 µM
7,O=C(O)c1cc(F)c2nc(CN3CCC(Oc4cccc(COc5ccc(C(F)F)cc5F)c4)CC3)n(C[C@@H]3CCO3)c2c1 [Compound 310],< 0.05 µM
8,"CCn1cncc1Cn1c(CN2CCC(C(F)c3cccc(COc4ccc(C)cc4Cl)c3)CC2)nc2ccc(C(=O)O)cc21 (racemic) [Example 131, 2-((4-((3-((2-Chloro-4-methylphenoxy)methyl)phenyl)fluoromethyl)piperidin-1-yl)methyl)-1-((1-ethyl-1H-imidazol-5-yl)methyl)-1H-benzo[d]imidazole-6-carboxylic acid]",< 0.05 µM
9,"C[C@H]1C[C@@H](Oc2ccnc(COc3ccc(C#N)cc3F)n2)CCN1Cc1nc2ccc(C(=O)O)cc2n1C[C@H]1CCOC1 [Compound 515, 2-{[(2S,4S)-4-({2-[(4-cyano-2-fluorophenoxy)methyl]pyrimidin-4-yl}oxy)-2-methylpiperidin-1-yl]methyl}-1-{[(3R)-oxolan-3-yl]methyl}-1H-1,3-benzodiazole-6-carboxylic acid]",< 0.05 µM
10,"Cc1ccc(NCc2cccc(C(=O)N3CCN(Cc4nc5ccc(C(=O)O)cc5n4C[C@@H]4CCO4)CC3)c2)c(Cl)c1 [Compound 80, 2-{[4-(3-{[(2-chloro-4-methylphenyl)amino]methyl}benzoyl)piperazin-1-yl]methyl}-1-{[(2S)-oxetan-2-yl]methyl}-1H-1,3-benzodiazole-6-carboxylic acid]",> 0.5 µM
